melting point [°C] | SMILES
125 to 130 | COc1cc(-c2ncn(C3CC3)c2-c2ccc(C(F)(F)F)cc2)cc(OC)c1OC
92 to 93 | Cc1oc(-c2cccc(Br)c2)nc1CCO
49 to 51 | CCCn1nc(C(C)C)c(C(=O)OCc2ccccc2C(=O)c2ccccc2)c1Cc1ccc(-c2ccccc2S(N)(=O)=O)c(F)c1
226 to 228 | CC(=O)Nc1ccc(Sc2cccn3nc(Nc4ccc(C5CCN(C(=O)OC(C)(C)C)CC5)cc4)nc23)cc1
102 to 104 | CC(=O)C(C(=O)c1ccc(Cl)cc1)C(=O)c1ccc(C(F)(F)F)cc1[N+](=O)[O-] (stereo unspecified)
225 to 227 | COC(=O)Nc1cc(-c2ccc(S(C)(=O)=O)cc2)n(-c2ccc(F)cc2)n1
160 to 162 | N#CC(C#N)=C(O)c1ccc(Oc2ccccc2)cc1
104 | CC(=O)OC1CC2=CCC3C4CCC(C(C)CS(=O)(=O)c5ccccc5)C4(C)CCC3C2(C)C(OC(C)=O)C1 (stereo unspecified)
62 to 65 | C=CCCc1sc(-c2nccs2)c2c1C(=O)CC(C)(C)C2
87 to 88 | O=C(O)CCCCCOc1cc(-c2ccccc2)cc(-c2ccccc2)n1
165 to 168 | COc1c(Cl)ccc(-c2cc(N)c(Cl)c(C(=O)OCc3ccc(Cl)cc3Cl)n2)c1F
100 to 102 | COC(=O)c1cc(-c2ccc(SC)cc2)nn(CC2CC2)c1=O
63 to 65 | CCC(C)OC1OCC(O)(N(CC(C)C)C(=O)N(CCCl)N=O)C(O)C1O (stereo unspecified)
153 | CC(=O)OC1CSC(Oc2ccc(-c3cccnc3F)nc2)C(OC(C)=O)C1OC(C)=O (stereo unspecified)
243 to 246 | CCOC(=O)c1cnc2[nH]c(=O)ccc2c1Nc1ccc(OC)cc1
179 to 181 | CCOn1cnc2c(N)nc3ccccc3c21
207 | CC(C)[C@]1(CCc2ccc(O)cc2)CC(O)=C(Sc2sc3ccccc3c2C(C)(C)C)C(=O)O1
73 | O=[N+]([O-])c1ccc(Cl)c(Cl)c1Br
152 to 155 | CCOC(=O)c1nc(C)oc1C(=O)NC(C)(C)C
226 to 228 | CC(C)n1nc(-c2sc(Nc3cccnc3)nc2-c2ccccc2)ccc1=O
112 to 114 | C#CCn1c(-c2cc(Cl)nc(Cl)c2)nc(OS(=O)(=O)C(F)(F)F)c(CC)c1=O
113 to 115 | COc1ccc2c(c1)c(CCO)c(C)n2Cc1ccc(Cl)cc1
212 to 214 | Nc1nc2ccccc2n1-c1ccc(I)cc1
213 to 216 | C#Cc1cccc(Nc2ncnc3ccc(NC(=O)c4ccc(C(=O)Nc5ccccc5N)nc4)cc23)c1

melting point [°C] | SMILES
227 to 230 | Nc1cc(F)c(-n2ccc(=O)cc2)cc1N
192 to 193 | CCCCc1csc2ccc3[nH]c4c(c3c12)CN(C)CC4
132 to 134 | O=C1c2cc(Cl)c(Cl)cc2C(=O)N1CCN1CCC(c2noc3cc(F)ccc23)CC1
117 to 120 | CCNNc1nc(C)c(C(=O)OCC)c(Cl)c1[N+](=O)[O-]
173 to 174 | NS(=O)(=O)c1ccc(-n2nc(C(F)(F)F)c(C3CC3)c2-c2ccccc2)cc1
126 to 130 | Cc1ccc(-c2ccccc2-c2c(OC(C)C)c(=O)c2=O)cc1
100 to 101 | COC(=O)c1cc2ccc(OCCc3ccccc3)cc2oc1=O
93 | Cc1c(C(O)C(F)(F)F)oc2c(Br)cccc12 (stereo unspecified)
185 to 189 | Cc1cccc(NCC(=O)Nc2ccc(S(N)(=O)=O)cc2Cl)c1
68 to 69 | O=Cc1csc(N2CCCCC2)n1
110 to 113 | Cc1cc(Cl)ccc1NC(=S)N(C)OCC(=O)O
120 to 121 | COc1cc(OC)nc(Oc2cccnc2C(=O)O)n1
234 to 235 | O=C(CNc1c(C(=O)O)[nH]c2cc(Cl)cc(Cl)c12)c1ccccc1Cc1ccccc1
265 | NC(=O)c1c(N)n(C2CCCC2)c2nc(Nc3ccc(N4CCOCC4)cc3)ncc2c1=O
224 to 226 | CC(C)(C)CNc1nc(-c2[nH]c(C(C)(C)C)nc2-c2ccccc2)ccc1[N+](=O)[O-]
86 to 88 | Cc1cc(CCCCCOc2ccc(-c3ccco3)cc2)on1
155 to 164 | COc1ccc(-n2nnc(-c3ccc(Cl)cc3Cl)c2N)cc1
121 to 124 | CC(C)=CCNc1ncnc2c1nc(N)n2C1OC(CO)C(O)C1O (stereo unspecified)
130 to 132 | O=C(O)Cc1ccc2c(c1)N(C1CCN(CCc3ccc(F)cc3)CC1)CC2
225 to 226 | Cc1[nH]c2ccnn2c(=O)c1CCO
132 | O=C1CCC(c2ccccc2)(c2ccccc2)[C@@H]2CN(Cc3ccccc3)C[C@H]12 (racemic)
86 to 89 | C=CCN(C)S(=O)(=O)CC(=O)C=C(C)N
84 to 86 | O=C(OCC(F)(F)C(F)C(F)(F)F)C(F)CF (stereo unspecified)
185 to 190 | COc1cc(N(C)C)ccc1-c1nc2c(N[C@H]3[C@@H](C(N)=O)[C@@H]4C=C[C@H]3C4)ccnc2[nH]1

melting point [°C] | SMILES
147 to 148 | NC(=O)C1CCc2cc(S(=O)(=O)Cl)ccc2O1 (stereo unspecified)
130 to 132 | CCCCN(Cc1ccc(-c2ccccc2-c2nnnn2C(c2ccccc2)(c2ccccc2)c2ccccc2)cc1)c1nc(C)ncc1C(=O)OCC
107 to 109 | CC(C)c1ccc(N(Cc2ccc(N(C)C)cc2)C(=O)C2CCCc3cc(OCc4ccccc4)ccc32)cc1 (stereo unspecified)
285 to 287 | COc1cc(OC)c(-c2csc(NC(=O)c3cc4ccccc4[nH]3)n2)c(OC)n1
230 to 232 | CC(=O)Nc1ccc(Oc2ccc3c(c2)OCC(=O)N3)cc1
157 to 160 | Fc1ccccc1C1=NCc2cnc(Cl)nc2-c2ccc(Cl)cc21
209 to 210 | Cc1oc(-c2ccccc2)nc1COc1ccc(OCc2oc(-c3ccccc3)nc2/C=C/C(=O)O)cc1
> 250 | COc1cc(Nc2c(C#N)cnc3cc(/C=C/C(=O)O)sc23)c(Cl)cc1Cl
197 | CCc1cccc(C)c1CNc1nc(C(=O)N2CCCC2)cn2c(C)c(C)nc12
219 to 220 | CNC(=C[N+](=O)[O-])NCc1ccc(Cl)cc1
56 to 58 | N#CC(=NOS(=O)(=O)CCCCl)c1cccs1
228 to 230 | CC(C)(C)OC(=O)N(Cc1ccccc1)c1ccc(O)cc1
140 to 141 | CSC(Cc1ccc(OCCN(C)c2nc3ccccc3o2)cc1)C(=O)O (stereo unspecified)
183 | COc1ccc(-c2nc(-c3cccn3Cc3ccccc3)[nH]c2-c2ccc(OC)cc2)cc1
120 | O=S1(=O)c2cccc3cccc(c23)N1CCCN1CCN(c2ccc(Cl)cc2)CC1
169 to 171 | Cc1cnc(CNC(=O)c2ccnc(N3CCN(Cc4ccc(F)cc4)C3=O)c2)cn1
86 | COC(=O)N(C)NC(=O)Oc1ccccc1
116 to 117 | COc1cc([N+](=O)[O-])c(NC(C)=O)cc1OC(F)F
134 to 135 | O=C(O)Cc1cccc(OCCCCc2cc(-c3ccc(C(F)(F)F)cc3)no2)c1
242 to 245 | Cc1oc2c(C)c(C)c(NC(=O)c3ccc(F)cc3)c(C)c2c1-c1ccccc1
80 to 83 | CCc1ccc(Cc2c(OCc3ccccc3)n[nH]c2C)cc1
189 to 191 | C=CCn1c(=O)c2c(nc(/C=C/c3cc(OC)c(OC)c(OC)c3)n2C)n(CC=C)c1=O
195 to 196 | CS(=O)(=O)c1ccc(-n2nc(C(F)(F)F)cc2-c2nc3ccc(Cl)cc3s2)cc1
167 to 168 | Cc1nc(N2CCN(Cc3ccccc3)C2=O)sc1C(=O)NCc1ccccc1F

melting point [°C] | SMILES
154 to 156 | Cn1c2ccccc2c(=O)c2cccn21
213 to 215 | Cc1cc(C)nc(COc2ccc3c(c2)c(SC(C)(C)C)c(CC(C)(C)C(=O)O)n3Cc2ccc(Cl)cc2)n1
166 | COc1c(C(C)(C)C)cc([PH](=O)c2cc(C(C)(C)C)c(OC)c(C(C)(C)C)c2)cc1C(C)(C)C
137 to 138 | CCOC(=O)C(C(=O)OCC)C(=O)c1ccc2oc3ncccc3c(=O)c2c1
50 to 55 | O=C(Nc1ccc(C(F)(F)F)cc1)C1CC(c2ccc(F)cc2)N(c2ccc(Cl)cc2)N1 (stereo unspecified)
198 | CCOCc1nc2c(N)nc3ccccc3c2n1CC1(O)CCN(C)CC1
205 to 210 | CN1CCC(N(C)S(=O)(=O)c2ccc(Nc3nccc(Nc4ccc(F)cc4)n3)cc2)CC1
144 to 145 | COC(=O)C(Cc1ccc(OC)c(C(=O)NCc2ccc(C(F)(F)F)cc2)c1)S(C)(=O)=O (stereo unspecified)
115 to 116 | CCOP(=O)(CSCCOn1cnc2c(N3C(=O)c4ccccc4C3=O)ncnc21)OCC
122 to 125 | CC(C)(C(=O)O)c1ccc(C(=O)CCCN2CCC(=C3c4ccccc4CCc4ccccc43)CC2)cc1
201 to 205 | Cc1cnccc1N1CCN(CC(=O)c2ccc(NS(C)(=O)=O)cc2)CC1
35 to 38 | c1ccc(OCCSCc2nnc(-c3ccc(OCCCCN4CCCCCC4)cc3)o2)cc1
200 to 203 | CC(C)NC(=O)c1cccc(I)c1C(=O)Nc1ccc(OCC(F)(F)F)nc1
58 to 59 | CC(C)COC(=O)N[C@@H](Cc1ccccc1)C(=O)CSCc1ccco1
175 to 176 | CC(C)(NC(=O)C(CS)Cc1ccccc1)C(=O)O (stereo unspecified)
178 to 179 | O=C1Nc2ccc(Cl)cc2C(C#Cc2ccccc2)(C(F)(F)F)O1 (single isomer, unassigned; (-))
142 to 145 | COc1ccc(O)c(C2(CO)C(=O)N(CO)c3cccc(Br)c32)n1 (stereo unspecified)
84 to 85 | ClCc1coc(-c2sccc2Cl)n1
193 | N#Cc1cc(C(N)=O)ccc1Cl
37.2 to 38.4 | CCOC(=O)CCCOc1ccccc1O
78 | Fc1ccc(-c2c3cccc(C(F)(F)F)c3nn2Cc2ccc(F)cc2Cl)cc1
158 to 159 | CC(=O)c1cccc(Nc2c3ccccc3nc3occc23)c1

SMILES | melting point [°C]
COc1cc(C(=O)O)cc2ccc(-c3ccc4c(c3)C(C)(C)CCC4(C)C)cc12 | 242
CC12CC3OC3CC1CCC1C2CCC2(C)C(O)C(N3CCC(O)CC3)CC12 (stereo unspecified) | 204 to 206
